# Experimental data taken from US8822449B2, “Substituted aminoindanes and analogs thereof, and the pharmaceutical use thereof” (Sanofi, priority 2008, dated 2014).
# Target: T1, sodium-proton exchanger of subtype 3 (NHE3) (Homo sapiens, UniProt P48764)
# T1 construct: expressed in transfected cells
# T1 sequence (P48764 26-834): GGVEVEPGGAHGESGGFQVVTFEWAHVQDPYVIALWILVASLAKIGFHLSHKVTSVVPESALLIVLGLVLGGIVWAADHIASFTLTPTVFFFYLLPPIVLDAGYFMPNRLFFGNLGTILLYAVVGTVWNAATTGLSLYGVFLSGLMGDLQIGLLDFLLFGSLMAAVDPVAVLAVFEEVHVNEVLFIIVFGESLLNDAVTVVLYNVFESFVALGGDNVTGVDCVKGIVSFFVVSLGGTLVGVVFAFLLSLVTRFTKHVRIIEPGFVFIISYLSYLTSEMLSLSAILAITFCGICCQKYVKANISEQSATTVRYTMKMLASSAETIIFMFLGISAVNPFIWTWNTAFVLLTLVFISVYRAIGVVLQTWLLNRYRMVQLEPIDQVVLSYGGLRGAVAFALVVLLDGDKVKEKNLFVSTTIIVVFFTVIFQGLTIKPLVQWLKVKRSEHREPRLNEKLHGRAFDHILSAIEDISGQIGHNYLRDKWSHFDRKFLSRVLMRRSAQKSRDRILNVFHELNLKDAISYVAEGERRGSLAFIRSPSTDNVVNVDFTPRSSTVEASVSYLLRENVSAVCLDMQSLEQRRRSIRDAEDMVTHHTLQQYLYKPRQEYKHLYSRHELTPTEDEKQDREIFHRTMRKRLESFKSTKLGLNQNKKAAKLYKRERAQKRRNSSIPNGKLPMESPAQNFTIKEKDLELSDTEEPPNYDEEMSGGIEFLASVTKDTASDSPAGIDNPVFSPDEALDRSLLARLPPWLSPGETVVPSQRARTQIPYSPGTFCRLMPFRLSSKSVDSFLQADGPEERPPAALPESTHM
# Test: Recovery of intracellular pH (pHi) after acidification in LAP1 cells stably expressing NHE3 (BCECF fluorescence, FLIPR)
# Format: cell-based
# Details: LAP1 cells stably expressing NHE3; pH recovery after acidification; range 1 is % inhibition at 10 μM; read-out: Activity range (inhibitory effect on NHE3)
SMILES,IC50 [nM],inhibition at 10 µM [%]
"CCN(CC)[C@@H]1Cc2ccccc2[C@H]1Oc1cccc(N2CCNCC2)c1 (racemic) [Example 626, Diethyl-[rac-trans-(1,2)-1-(3-piperazin-1-ylphenoxy)indan-2-yl]amine]",1000 to 10000,–
"Cc1nnc(C)n1-c1ccc(O[C@H]2c3cc(Cl)cc(Cl)c3C[C@@H]2N2CCCC2)cc1 [Example 500, 4-[4-(trans-(1S,2S)-4,6-dichloro-2-pyrrolidin-1-ylindan-1-yloxy)phenyl]-3,5-dimethyl-4H-[1,2,4]triazole]",< 1000,–
"CC(=O)Nc1cccc(O[C@H]2c3cc(Cl)ccc3C[C@@H]2N2CCCC2)c1 (racemic) [Example 658, N-[3-(rac-trans-(1,2)-6-chloro-2-pyrrolidin-1-ylindan-1-yloxy)phenyl]acetamide]",< 1000,–
"c1ccc2c(c1)C[C@@H](N1C[C@H]3CNC[C@H]3C1)[C@@H]2Oc1cccc2[nH]ccc12 (racemic) [Example 504, 4-[rac-trans-(1,2)-2-(Hexahydropyrrolo[3,4-c]pyrrol-2-yl)indan-1-yloxy]-1H-indole]",1000 to 10000,–
"N#Cc1ccc(O[C@H]2c3cc(Cl)cc(Cl)c3C[C@@H]2N2CCC2)c(F)c1 [Example 454, 4-((1S,2S)-2-azetidin-1-yl-4,6-dichloroindan-1-yloxy)-3-fluorobenzonitrile]",–,20 to 50
"N#Cc1ccc(O[C@H]2c3ccccc3C[C@@H]2CN2CCCC2)cc1Cl (racemic) [Example 391, 2-chloro-4-(2-pyrrolidin-1-ylmethylindan-1-yloxy)benzonitrile]",–,20 to 50
"Cc1cn(-c2ccc(O[C@H]3c4cc(Cl)cc(Cl)c4C[C@@H]3N3CC[C@@H](O)C3)c(F)c2)c(C)n1 [Example 727, (R)-1-{trans-(1S,2S)-4,6-Dichloro-1-[4-(2,4-dimethyl-imidazol-1-yl)-2-fluoro-phenoxy]-indan-2-yl}-pyrrolidin-3-ol]",< 1000,–
"N[C@H]1CCCN([C@H]2CCc3ccccc3[C@@H]2Oc2ccc(F)cc2-c2ccno2)C1 (racemic) [Example 178, (S)-1-[rac-trans-(1,2)-1-(4-fluoro-2-isoxazol-5-ylphenoxy)-1,2,3,4-tetrahydronaphthalen-2-yl]piperidin-3-ylamine]",–,20 to 50
"CC(=O)Nc1cccc(O[C@H]2c3ccc(F)cc3C[C@@H]2N2CCCC2)c1 (racemic) [Example 656, N-[3-(rac-trans-(1,2)-5-fluoro-2-pyrrolidin-1-ylindan-1-yloxy)phenyl]acetamide]",1000 to 10000,–
"N[C@H]1CCCN([C@H]2CCc3ccccc3[C@@H]2Oc2ccc(F)c3cccnc23)C1 (racemic) [Example 188, (S)-1-[rac-trans-(1,2)-1-(5-fluoroquinolin-8-yloxy)-1,2,3,4-tetrahydronaphthalen-2-yl]piperidin-3-ylamine]",1000 to 10000,–
"O=C1CCCN1c1ccc(O[C@H]2c3cc(Cl)cc(Cl)c3C[C@@H]2N2CC[C@@H](O)C2)c(Cl)c1 [Example 321, 1-{3-chloro-4-[(1S,2S)-4,6-dichloro-2-((R)-3-hydroxypyrrolidin-1-yl)indan-1-yloxy]phenyl}pyrrolidin-2-one]",< 1000,–
"NC1CCN([C@@H]2Cc3ccccc3[C@H]2Oc2cccc(N3CCNCC3)c2)C1 (mixture of isomers) [Example 270, 1-[rac-trans-(1,2)-1-(3-piperazin-1-ylphenoxy)indan-2-yl]pyrrolidin-3-ylamine]",1000 to 10000,–
"Fc1ccc(O[C@H]2c3cc(Cl)cc(Cl)c3C[C@@H]2N2CCNCC2)c2ncccc12 [Example 592, 8-((1S,2S)-4,6-dichloro-2-piperazin-1-ylindan-1-yloxy)-5-fluoroquinoline]",–,20 to 50
"Cc1cn(-c2ccc(O[C@H]3c4cc(Cl)cc(F)c4C[C@@H]3N3CC[C@@H](O)C3)c(F)c2)c(C)n1 [Example 738, (R)-1-{trans-(1S,2S)-6-Chloro-1-[4-(2,4-dimethyl-imidazol-1-yl)-2-fluoro-phenoxy]-4-fluoro-indan-2-yl}-pyrrolidin-3-ol]",< 1000,–
"N[C@@H]1CCCN([C@H]2Cc3c(Cl)cc(Cl)cc3[C@@H]2Oc2ccc(F)cc2-c2cc[nH]n2)C1 [Example 113, (R)-1-{(1S,2S)-4,6-dichloro-1-[4-fluoro-2-(1H-pyrazol-3-yl)phenoxy]indan-2-yl}piperidin-3-ylamine]",< 1000,–

# Now from value to compound:
IC50 [nM],inhibition at 10 µM [%],SMILES
< 1000,–,"NC(=O)c1ccccc1O[C@H]1c2ccccc2CC[C@@H]1N1CCC[C@H](N)C1 (racemic) [Example 373, 2-[rac-trans-(1,2)-2-((S)-3-aminopiperidin-1-yl)-1,2,3,4-tetrahydronaphthalen-1-yloxy]benzamide]"
< 1000,–,"Cn1ccn(-c2cccc(O[C@H]3c4ccccc4C[C@@H]3N3CCCC3)c2)c1=O (racemic) [Example 352, 1-methyl-3-[3-(rac-trans-(1,2)-2-pyrrolidin-1-ylindan-1-yloxy)phenyl]-1,3-dihydroimidazol-2-one]"
< 1000,–,"O=C1OCCN1c1cccc(O[C@H]2c3ccccc3C[C@@H]2N2CCCC2)c1 (racemic) [Example 409, 3-[3-(rac-trans-(1,2)-2-pyrrolidin-1-ylindan-1-yloxy)phenyl]oxazolidin-2-one]"
< 1000,–,"Cc1c(O[C@H]2c3ccccc3C[C@@H]2N2CCCC2)ccc(-n2c(C)nnc2C)c1C (racemic) [Example 488, 4-[2,3-dimethyl-4-(rac-trans-(1,2)-2-pyrrolidin-1-ylindan-1-yloxy)phenyl]-3,5-dimethyl-4H-[1,2,4]triazole]"
< 1000,–,"NS(=O)(=O)c1ccc(O[C@H]2c3cc(Cl)cc(Cl)c3C[C@@H]2N2CCCC2)cc1 [Example 457, 4-((1S,2S)-4,6-dichloro-2-pyrrolidin-1-ylindan-1-yloxy)benzenesulfonamide]"
–,20 to 50,"C[C@@]1(N2CCCC2)Cc2ccccc2[C@H]1Oc1ccc(S(C)(=O)=O)cc1 (racemic) [Example 252, 1-[1-(4-methanesulfonylphenoxy)-2-methylindan-2-yl]pyrrolidine]"
< 1000,–,"NS(=O)(=O)c1ccc(O[C@@H]2c3ccccc3C[C@H]2NC2CCC2)c(F)c1 (racemic) [Example 709, 4-(rac-trans-(1,2)-2-Cyclobutylamino-indan-1-yloxy)-3-fluoro-benzenesulfonamide]"
< 1000,–,"CS(=O)(=O)c1ccc(O[C@H]2c3cc(Cl)cc(Cl)c3C[C@@H]2N2CCCNCC2)cc1 (racemic) [Example 277, 1-[rac-trans-(1,2)-4,6-dichloro-1-(4-methanesulfonylphenoxy)indan-2-yl]-[1,4]diazepane]"
–,20 to 50,"CC(=O)Nc1cccc(O[C@H]2c3ccccc3C[C@@H]2N2CCNCC2)c1 (racemic) [Example 639, N-[3-(rac-trans-(1,2)-2-piperazin-1-ylindan-1-yloxy)phenyl]acetamide]"
–,20 to 50,"CS(=O)(=O)c1ccc(O[C@@H]2c3ccccc3C[C@@H]2NC2CCC2)cc1 (racemic) [Example 706, Cyclobutyl-[rac-cis-(1,2)-1-(4-methanesulfonyl-phenoxy)-indan-2-yl]-amine]"
–,20 to 50,"CS(=O)(=O)c1ccc(O[C@H]2c3cc(Cl)cc(Cl)c3C[C@@H]2N2CCC(S(C)(=O)=O)C2)cc1 (mixture of isomers) [Example 249, 1-[(1S,2S)-4,6-dichloro-1-(4-methanesulfonylphenoxy)indan-2-yl]-3-methanesulfonylpyrrolidine]"
